Reference: patent US8927530B2, “Therapeutic combination comprising a PLK1 inhibitor and an antineoplastic agent” (priority 2009, dated 2015)
Like-named read-outs stand apart in the source and are kept apart here.

Assays:
[1] = tested on: HT29 human colon cancer tumors; details: for T-C: delay to reach 1 g tumor
Procedure: Balb, Nu/Nu male mice, from Harlan (Italy), were maintained, in agreement with the European Communities Council Directive no. […] Fragments of HT29 human colon cancer tumors were implanted subcutaneously. The treatment started when tumors were palpable. […] Tumor growth and body weight were measured every 3 days. Tumor growth was assessed by caliper. The two diameters were recorded and the tumor weight was calculated according to the following formula: length (mm)×width^2/2. […] This delay (T-C value) was defined as the difference of time (in days) required for the treatment group (T) and the control group (C) tumors to reach a predetermined size (1 g). Sinergy was identified when T-C of drug combination is >of addition of T-C value of single agents, additivity is identified when T-C value of drug combination is equal to addition of T-C value of single agents.
(§1) Toxicity was evaluated on the basis of body weigh reduction.

[2] = tested on: HT29 human colon cancer tumors; details: for T-C: delay to reach 1 g tumor; remark: listed apart in the source
Procedure: Balb, Nu/Nu male mice, from Harlan (Italy), were maintained, in agreement with the European Communities Council Directive no.
Fragments of HT29 human colon cancer tumors were implanted subcutaneously. The treatment started when tumors were palpable. […] Tumor growth and body weight were measured every 3 days. Tumor growth was assessed by caliper. The two diameters were recorded and the tumor weight was calculated according to the following formula: length (mm)×width^2/2. […] This delay (T-C value) was defined as the difference of time (in days) required for the treatment group (T) and the control group (C) tumors to reach a predetermined size (1 g). Sinergy was identified when T-C of drug combination is >of addition of T-C value of single agents.
as §1

[3] = tested on: AML-PS acute myeloid leukaemia cells; details: for Median Survival Time: Control 34
Procedure: SCID female mice, from Harlan (Italy), were maintained, in agreement with the European Communities Council Directive no. […] 5×10^6 in 0.2 ml AML-PS acute myeloid leukaemia cells were injected intravenously in mice.
Cytarabine was administered by intraperitoneal route at the dose of 75 mg/kg on days 2, 3, 4, 5, 6, 14, 15, 16, 17, 18, 26, 27, 28, 29, 30, 38, 39, 40, 41 42. […] Body weight was measured every 3 days. The effect of the antitumor treatment was evaluated determining the Median Survival Time of treated animals respect to control group.

[4] = tested on: HT29 human colon cancer tumors; assay: In vivo activity of combination with bevacizumab, HT29 tumors implanted subcutaneously; details: for T-C: delay to reach 1 g tumor
[5] = Compound of formula (I) 45 mg/kg oral, day 2, 3, 4, 6, 7, 8
[6] = male, Balb Nu/Nu, mouse, in vivo, po, 45 mg/kg

O=c1[nH]cc(F)c(=O)[nH]1 [5FU, 5-fluorouracil, reference compound]
T-C ([1]; 5FU 50 mg/kg intravenous, days 1, 5, 9): 11.4 days

CCc1c2c(nc3ccc(OC(=O)N4CCC(N5CCCCC5)CC4)cc13)-c1cc3c(c(=O)n1C2)COC(=O)[C@]3(O)CC [CPT11, reference compound]
T-C ([2]; CPT11 45 mg/kg intravenous, days 1, 5, 9): 12.3 days

CN1CCN(c2ccc(OC(F)(F)F)c(Nc3ncc4c(n3)-c3c(c(C(N)=O)nn3CCO)CC4)c2)CC1 [Compound of formula (I)]
T-C [2, 5]: 10.3 days | Toxicity [2, 6]: 0/7 | T-C [1, 5]: 10.3 days | Toxicity [1, 6]: 0/7 | Median Survival Time ([3]; Compound of formula (I) 120 mg/kg oral, day 2, 3, 14, 15, 26, 27, 38, 39): 49.5 | Toxicity ([3]; female, SCID, mouse, in vivo, po, 120 mg/kg): 0/7 | T-C ([4]; Compound of formula (I) 45 mg/kg oral, day 2, 3, 4, 6, 7, 8, 10, 11, 12): 8.5 days | T-C ([4]; Compound of formula (I) 60 mg/kg oral, day 2, 3, 4, 6, 7, 8, 10, 11, 12): 16.8 days | Toxicity [4, 6]: 0/7 | Toxicity ([4]; male, Balb Nu/Nu, mouse, in vivo, po, 60 mg/kg): 0/7

Nc1ccn([C@@H]2O[C@H](CO)[C@@H](O)[C@@H]2O)c(=O)n1 [Cytarabine, cytarabine, reference compound]
Median Survival Time ([3]; cytarabine 75 mg/kg intraperitoneal, days 2-6, 14-18, 26-30, 38-42): 66.5

bevacizumab [reference compound]
Toxicity ([4]; Bevacizumab 20 mg/kg, intravenous route (footnote), days 1, 5, 9, 13, body weight reduction): 0/7 | T-C ([4]; Bevacizumab 20 mg/kg, intravenous route (footnote), days 1, 5, 9, 13): 4.7 days
